The source of these data is publication PMC12413947, “Caffeine Acts as an Agonist of Siglec-6, Inhibits MRGPRX2-Triggered Mast Cell Degranulation and Anaphylactoid Reactions” (Mediators of Inflammation, 2025).

As usually defined, the Kd is the constant that tells how readily two partners part at equilibrium.

SMILES strings stand for the structures.

The test deals with T1, Siglec-6 (Homo sapiens, UniProt O43699).
T1 construct: gene SIGLEC6; captured on CM5 chip
Description: surface plasmon resonance (Biacore T200). The format is binding. The source says:
surface plasmon resonance (Biacore T200) on Siglec-6 | The binding affinity between caffeine and Siglec-6 protein is with a calculated KD of […]

T1 sequence (O43699 27-347 limits assumed): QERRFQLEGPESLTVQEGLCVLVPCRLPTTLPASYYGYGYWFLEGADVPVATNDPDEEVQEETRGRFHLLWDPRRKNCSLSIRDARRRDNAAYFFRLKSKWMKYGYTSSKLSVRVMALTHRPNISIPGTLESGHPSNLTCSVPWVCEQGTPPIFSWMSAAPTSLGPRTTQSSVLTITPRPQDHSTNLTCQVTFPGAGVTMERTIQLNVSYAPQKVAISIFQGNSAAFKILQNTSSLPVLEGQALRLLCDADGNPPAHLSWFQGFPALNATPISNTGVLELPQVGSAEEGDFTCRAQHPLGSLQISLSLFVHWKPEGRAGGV

Turning to `Cn1c(=O)c2c(ncn2C)n(C)c1=O` [caffeine], the dissociation constant (Kd) was 176 nM.
